Legend:
C. albicans = assay: Zone of inhibition assay; assay type: cell-based, Candida albicans; details: 20 μL per 6 mm disk, 72 hrs, n = 3
Experimental: (§1) For assays to find minimum inhibitory concentrations, all treatments were diluted in 10% DMSO and 0.5% Tween 80 to stabilize the samples.
(§2) Microorganisms Escherichia coli (ATCC #8739), Streptococcus sanguinis (ATCC #BAA-1455), Salmonella enteria subsp. enterica (ex Kauffmann and Edwards) Le Minor and Popoff serovar Typhimurium (ATCC #14028), Staphylococcus aureus (ATCC #6538), Pseudomonas aeruginosa (ATCC #9027), and Candida albicans (ATCC #10231) were obtained from a −80° C. internal stock culture. Aspergillus brasiliensis (ATCC #16404) was obtained from an internal stock solution culture stored at 4° C. E. coli, S. enterica S. aureus, and P. aeruginosa were grown in tryptic soy broth (TSB) and incubated at 37° C. for 24 h. S. sanguinis was grown in brain heart infusion broth (BHI). A. brasiliensis was plated on Sabourand dextrose agar (SDA) and incubated at 25° C. for 5-7 days. C. albicans was grown in Sabourand dextrose broth (SDB) and incubated at 25° C. for 48 h.
(§3) A. brasiliensis was harvested by adding 18 mL sterile saline to the plate and agitating the mold from the agar with a sterile inoculating loop. The inoculum was collected upon agitation. All suspended microbes were diluted with the same type of broth media used to grow each organism until an inoculum in the range of 10^6 CFU/mL was achieved. The inoculum concentration was determined by plate count method. Each strain was identified by plating on the appropriate growth media, E. coli, S. aureus, and P. aeruginosa on tryptic soy agar (Bacto, BD Sciences, Manassas, Va.) and C. albicans and A. brasiliensis on Sabrouand dextrose agar, to ensure there was no contamination of the inoculum.
(§4) A zone of inhibition assay was used for A. brasiliensis and C. albicans. SDA was used as the plated medium. Inocula at 10^5 cfu/ml were prepared and counted using a Petroff-Hausser counting chamber. The diameter of no growth around a 6 mm blank disk after incubation at 25° C. for 72 hrs was compared to the untreated control. 20 μL of treatment was applied to each disk in triplicate. 10% DMSO was used as the control.

[1] = system: Candida albicans (ATCC #10231); assay: Preservative efficacy test (USP 51) in cold process cream, Example 1; assay type: cell-based; details: cream with 0.5% or 1.0% caprylic acid, after 2 days
Experimental: (§5) Creams were prepared aseptically by spraying 70% isopropyl alcohol on all surfaces and labware. Carbomer 940 and coco caprylate were obtained from BPI Labs, Inc. (Evanston, Wyo.). Safflower and olive oils were purchased from Jedwards International, Inc. (Quincy, Mass.). The cream formulations were as follows: […]
(§6) Preservative studies were completed at different times for caprylic acid and 10% carvacrol in caprylic acid. The negative and positive controls were designated at A, B for the caprylic acid study and 1, 2 for the addition of carvacrol in Table 1. The change in positive control ingredients was due to a shift in the preservative used for regular KPC formulations.
(§7) DI water was added to a pre-weighed 250 mL beaker and mixed at 800 rpm using an overhead mixer (Eurostar power-b IKA-WERKE, Wilmington, N.C.) with a 3 blade […] impeller. Carbomer 940 was slowly added to the center of the mixing water. The mixture was hydrated for 30 minutes while covered with aluminum foil. Glycerin quickly followed by Lysofix were slowly added to the solution. After 2 minutes, safflower oil, olive oil, and coco caprylate were slowly added to the mixture at 1000 rpm. The solution was mixed for 30 minutes while covered with aluminum foil. Next the pH was measured and adjusted to 5.5 with a 33.3% sodium hydroxide solution. The mixing speed was increased to 1400 rpm. From time to time, it was necessary to scrape the sides of the beaker with a spatula to ensure that the cream became homogenized. When the cream appeared homogenized, the amount of preservative or treatment was added. After 2 minutes, the cream was weighed and water added to reach a mass balance.
(§8) Microorganisms Escherichia coli (ATCC #8739), Staphylococcus aureus (ATCC #6538), Pseudomonas aeruginosa (ATCC #9027), and Candida albicans (ATCC #10231) were obtained from a −80° C. internal stock culture. Aspergillus brasiliensis (ATCC #16404) was obtained from an internal stock solution cultured stored at 4° C. E. coli, S. aureus, and P. aeruginosa were grown in tryptic soy broth (Bacto, BD Sciences, Manassas, Va.) and incubated at 37° C. for 24 h. A. brasiliensis was plated on Sabourand dextrose agar (Bacto, BD Sciences, Manassas, Va.) and incubated at 25° C. for 5-7 days. C. albicans was grown in Sabourand dextrose broth (Bacto, BD Sciences, Manassas, Va.) and incubated at 25° C. for 48 h.
(§9) Pathogens in broth were harvested by centrifugation (2400 rpm, 20 minutes) and suspended in sterile saline. A. brasiliensis was harvested by adding 18 mL sterile saline to the plate and agitating the mold from the agar with a sterile inoculating loop. The inoculum was collected upon agitation. All suspended microbes were diluted with sterile saline until an inoculum in the range of 10^8 CFU/mL was achieved. The inoculum concentration was determined by plate count method. Each strain was identified by plating on the appropriate growth media, E. coli, S. aureus, and P. aeruginosa on tryptic soy agar (Bacto, BD Sciences, Manassas, Va.) and C. albicans and A. brasiliensis on Sabrouand dextrose agar, to ensure there was no contamination of the inoculum.
(§10) Creams were plated according to the SOP^1 to ensure they were sterile. Each prepared cream was inoculated with 0.1 mL of inoculum per 10 g of sample to reach the targeted inoculated concentration of 6-log cfu/g. Samples were vortexed for 2 minutes. The inoculated creams were incubated at 25° C. […]

[2] = system: Aspergillus brasiliensis (ATCC #16404); assay: as above; assay type: cell-based; details: cream with caprylic acid, by the end of the study (28 days)
Experimental: as §5, §6, §7, §8, §9, §10

[3] = system: Escherichia coli (ATCC #8739); assay: as above; assay type: cell-based; details: cream with 0.5% or 1.0% caprylic acid, after 3 days
Experimental: as §5, §6, §7, §8, §9, §10

[4] = system: Pseudomonas aeruginosa (ATCC #9027); assay: as above; assay type: cell-based; details: cream with 0.5% or 1.0% caprylic acid, after 2 days
Experimental: as §5, §6, §7, §8, §9, §10

[5] = system: Staphylococcus aureus (ATCC #6538); assay: as above; assay type: cell-based; details: cream with 0.5% or 1.0% caprylic acid, after 2 days
Experimental: as §5, §6, §7, §8, §9, §10

A. brasiliensis = assay: Zone of inhibition assay; assay type: cell-based, Aspergillus brasiliensis; details: 20 μL per 6 mm disk, 72 hrs, n = 3
Experimental: as §1, §2, §3, §4

CCCCCCCC(=O)O [Caprylic Acid, octanoic acid]
Inhibition Diameter, C. albicans (C. albicans; 0.45% treatment): 3.5 mm
Inhibition Diameter, C. albicans (C. albicans; 0.9% treatment): 4.5 mm
Inhibition Diameter, C. albicans (C. albicans; 2.7% treatment): 24.5 mm
Log reduction of C. albicans [1]: 5 log
Log reduction of A. brasiliensis [2]: 2 log
Log reduction of E. coli [3]: 5 log
Log reduction of P. aeruginosa [4]: 5 log
Log reduction of S. aureus [5]: 5 log
Inhibition Diameter, A. brasiliensis (A. brasiliensis; 0.9% treatment): 0 mm
Inhibition Diameter, A. brasiliensis (A. brasiliensis; 2.7% treatment): 0 mm
Inhibition Diameter, A. brasiliensis (A. brasiliensis; 4.5% treatment): 0 mm

— patent US9578878B2, “Antimicrobial efficacy of an oregano oil and caprylic acid blend” (Kemin Industries, Inc., priority 2014, dated 2017)
